In brackets after ≈: the same amount, converted by molar mass.
Experiments:
Assay type in all cases: cell-based
[1] = system: Aspergillus flavus ATCC MYA-1004; assay: In vitro antifungal activity (MIC80), Aspergillus flavus ATCC MYA-1004; conditions: Table 3, MYA-1004
Protocol: (§1) In vitro antifungal activities of the inventive antifungal compounds were evaluated using test strains including Candida albican (ATCC 90873, 204276, 62342, 64124, 64550, 96901, MYA-573, MYA-574, MYA-575, MYA-576, MYA-1003) and Aspergillus fumigatus (ATCC 16424). Test samples and positive control samples were prepared by dissolving the inventive compounds and comparative compounds, i.e., amphotericin B, fluconazole and itraconazole, in DMSO, respectively, and each successively diluted with medium to obtain test and positive control solutions having test compound concentrations of 0.125 μg/ml to a maximum concentration not generating turbidity. Minimal inhibitory concentration (MIC80) of each compound was determined as the lowest concentration of the test compounds required to reduce growth by 80% relative to a control strain not treated.
(§2) 3) Preparation of test samples: the inventive compounds and comparative compounds were each diluted with DMSO to obtain 1 to 2 ml of a test sample in a concentration of 100-folds of the determining maximum concentration (256 μg/ml).
(§3) The test samples were each successively diluted with RPMI 1640 to obtain test solutions having concentrations of […] in a 12×75 mm sterilized disposable culture tube. The final concentration of DMSO was adjusted to […] (v/v).
(§4) Candida albican strains were each subcultured in Sabourad Dextrose Agar, YM Agar or Potato Dextrose Agar medium at 35° C. for 2˜3 days. In the case of yeasts, a single colony was taken from prominent colonies and suspended in 0.85% sterile physiological saline solution and the turbidity of the suspension was adjusted to 80˜82% at 530 nm, and then diluted 50-fold with RPMI 1640 medium to 1.0×10^3˜5.0×10^3 CFU/ml. The turbidity of fungi was adjusted to 80˜82% and the suspension was diluted 50-fold to […]. Aspergillus fumigatus strains were subcultured in Malt Extract Agar for 7˜10 days, and a single colony was taken from prominent colonies and suspended in 0.85% sterile physiological saline solution and the suspension was adjusted to 0.108 at 530 nm, and then diluted 1000-fold with RPMI 1640 medium to 0.4×10^2˜5×10^4 CFU/ml. The turbidity of fungi was adjusted to 80˜82% and the suspension was diluted 50-fold to 0.4102˜0.5104 CFU/ml.
(§5) The strain solutions thus obtained were each seeded into a sterilized 96-well microplate, 0.1 ml of each test solution were added thereto, and […] of alamarblue was treated to each well (Biosource, #DAL1100). This procedure was repeated 2 times.
(§6) Minimal inhibitory concentration (MIC80) of each compound was determined as the lowest concentration of the test compounds required to reduce growth by 80% relative to a control strain not treated.
(§7) MIC80 of each of the compounds of which antifungal activities can be confirmed by Table 2 was determined using other test strains, i.e., Aspergillus fumigatus ATCC 16424 and MYA-1163, Aspergillus terreus ATCC 28301, Aspergillus flavus ATCC MYA-1004, and Aspergillus niger ATCC 9142.

[2] = system: Candida albican ATCC 90873; assay: In vitro antifungal activity (MIC80), Candida albican ATCC 90873; conditions: Table 2, ATCC 90873; for MIC80: Candida, ATCC90873, read-out: Minimal inhibitory concentration (MIC80)
In short: (§8)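 Broth microdilution in RPMI 1640 with 2% (v/v) final DMSO, test solutions 0.25 to 256 […]. Inoculum of 1.0×10^3–5.0×10^3 CFU/ml came from colonies grown 2–3 days at 35 °C, and alamarBlue was added. MIC80 is the lowest concentration reducing growth by 80% versus untreated control.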

[3] = system: Candida albican ATCC MYA-574; assay: In vitro antifungal activity (MIC80), Candida albican ATCC MYA-574; conditions: Table 2, MYA 574; for MIC80: Candida, read-out: Minimal inhibitory concentration (MIC80)
In short: as §8

[4] = system: Aspergillus fumigatus MYA-1163; assay: In vitro antifungal activity (MIC80), Aspergillus fumigatus MYA-1163; conditions: Table 3, MYA-1163
Protocol: as §1, §2, §3, §4, §5, §6, §7

[5] = system: Candida albican ATCC 62342; assay: In vitro antifungal activity (MIC80), Candida albican ATCC 62342; conditions: Table 2, 62342; for MIC80: Candida, ATCC62342, read-out: Minimal inhibitory concentration (MIC80)
In short: as §8

[6] = system: Aspergillus terreus ATCC 28301; assay: In vitro antifungal activity (MIC80), Aspergillus terreus ATCC 28301; conditions: Table 3, ATCC 28301
Protocol: as §1, §2, §3, §4, §5, §6, §7

[7] = system: Candida albican ATCC MYA-573; assay: In vitro antifungal activity (MIC80), Candida albican ATCC MYA-573; conditions: Table 2, MYA 573; for MIC80: Candida, read-out: Minimal inhibitory concentration (MIC80)
In short: as §8

[8] = system: Aspergillus fumigatus (ATCC 16424); assay: In vitro antifungal activity (MIC80), Aspergillus fumigatus ATCC 16424; conditions: for MIC80: Aspergillus fumigatus, ATCC16424, Table 2, ATCC 16424, read-out: Minimal inhibitory concentration (MIC80)
Protocol: as §1
(§9) 1) Test strain: Candida albican ATCC 90873, 204276, 62342, 64124, 64550, 96901, MYA-573, MYA-574, MYA-575, MYA-576, MYA-1003, and Aspergillus fumigatus ATCC 16424 were commercially obtained from The American Type Culture Collection (ATCC) and subcultured in CHEMON Co. Ltd. (amphotericin B was commercially purchased from Sigma, and fluconazole and itraconazole were prepared according to methods described in British Patent No. 2,099,818; and U.S. Pat. No. 4,267,179, respectively).
(§10) 2) Medium and culture condition: Candida albican was cultured in Sabourad Dextrose Agar, YM Agar or Potato Dextrose Agar according to ATCC information at a temperature of 37° C., 35° C., 30° C. or 25° C. Aspergillus fumigatus was cultured in Malt Extract Agar or Potato Dextrose Agar at a temperature ranging from 24 to 27° C.
as §2, §3
(§11) 5) Preparation of strain solution and inoculation
as §4, §5, §6, §7

[9] = system: Candida albican ATCC MYA-576; assay: In vitro antifungal activity (MIC80), Candida albican ATCC MYA-576; conditions: Table 2, MYA 576; for MIC80: Candida, read-out: Minimal inhibitory concentration (MIC80)
In short: as §8

[10] = system: Candida albican ATCC 96901; assay: In vitro antifungal activity (MIC80), Candida albican ATCC 96901; conditions: Table 2, ATCC 96901; for MIC80: Candida, ATCC96901, read-out: Minimal inhibitory concentration (MIC80)
In short: as §8

[11] = system: Candida albican ATCC 64124; assay: In vitro antifungal activity (MIC80), Candida albican ATCC 64124; conditions: Table 2, 64124; for MIC80: Candida, ATCC64124, read-out: Minimal inhibitory concentration (MIC80)
In short: as §8

[12] = system: Candida albican ATCC MYA-1003; assay: In vitro antifungal activity (MIC80), Candida albican ATCC MYA-1003; conditions: Table 2, MYA 1003; for MIC80: Candida, read-out: Minimal inhibitory concentration (MIC80)
In short: as §8

[13] = system: Candida albican ATCC 64550; assay: In vitro antifungal activity (MIC80), Candida albican ATCC 64550; conditions: Table 2, 64550; for MIC80: Candida, ATCC64550, read-out: Minimal inhibitory concentration (MIC80)
In short: as §8

[14] = system: Candida albican ATCC MYA-575; assay: In vitro antifungal activity (MIC80), Candida albican ATCC MYA-575; conditions: Table 2, MYA 575; for MIC80: Candida, read-out: Minimal inhibitory concentration (MIC80)
In short: as §8

[15] = system: Aspergillus niger ATCC 9142; assay: In vitro antifungal activity (MIC80), Aspergillus niger ATCC 9142; conditions: Table 3, ATCC 9142
Protocol: as §1, §2, §3, §4, §5, §6, §7

[16] = system: Candida albican ATCC 204276; assay: In vitro antifungal activity (MIC80), Candida albican ATCC 204276; conditions: ATCC204276, Table 2, 204276, read-out: Minimal inhibitory concentration (MIC80)
Protocol: as §1, §9, §10, §2, §3, §11, §4, §5, §6

For `C[C@@H]1[C@H](O)[C@@H](C)/C=C/C=C/C=C/C=C/C=C/C=C/C=C/[C@H](O[C@@H]2O[C@H](C)[C@@H](O)[C@H](N)[C@@H]2O)C[C@@H]2O[C@](O)(C[C@@H](O)C[C@@H](O)[C@H](O)CC[C@@H](O)C[C@@H](O)CC(=O)O[C@H]1C)C[C@H](O)[C@H]2C(=O)O` [A, amphotericin B, reference compound], the “Minimal inhibitory concentration (MIC80)” value [1] was 4 µg/mL (≈ 4.33 µM), the “Minimal inhibitory concentration (MIC80)” value [2] was 1 to 2 µg/mL and the “Minimal inhibitory concentration (MIC80)” value [3] was 0.25 µg/mL (≈ 0.271 µM). For the same compound, the “Minimal inhibitory concentration (MIC80)” value [4] was 2 µg/mL (≈ 2.16 µM), the “Minimal inhibitory concentration (MIC80)” value [5] was 0.5 µg/mL (≈ 0.541 µM) and the “Minimal inhibitory concentration (MIC80)” value [6] was 4 µg/mL (≈ 4.33 µM). The “Minimal inhibitory concentration (MIC80)” value [7] was 0.5 µg/mL (≈ 0.541 µM), the “Minimal inhibitory concentration (MIC80)” value ([8]; Table 2, ATCC 16424) was 1 to 2 µg/mL and the “Minimal inhibitory concentration (MIC80)” value ([8]; Table 3, ATCC 16424) was 0.5 µg/mL (≈ 0.541 µM). For the same compound, the “Minimal inhibitory concentration (MIC80)” value [9] was 0.5 µg/mL (≈ 0.541 µM), the “Minimal inhibitory concentration (MIC80)” value [10] was 0.25 µg/mL (≈ 0.271 µM) and the “Minimal inhibitory concentration (MIC80)” value [11] was 0.5 µg/mL (≈ 0.541 µM). For the same compound, the “Minimal inhibitory concentration (MIC80)” value [12] was 0.5 µg/mL (≈ 0.541 µM), the “Minimal inhibitory concentration (MIC80)” value [13] was 0.5 µg/mL (≈ 0.541 µM) and the “Minimal inhibitory concentration (MIC80)” value [14] was 0.5 µg/mL (≈ 0.541 µM). For the same compound, the “Minimal inhibitory concentration (MIC80)” value [15] was 0.5 µg/mL (≈ 0.541 µM).
`C[C@@H](N1CCN(Cc2ccco2)CC1)[C@](O)(Cn1cncn1)c1ccc(F)cc1F` [Example 43, (2R,3R)-2-(2,4-difluorophenyl)-3-(4-((furan-2-yl)methyl)piperazin-1-yl)-1-(1H-1,2,4-triazol-1-yl)butan-2-ol] showed an MIC80 [2] of 0.125 µg/mL (≈ 0.299 µM), an MIC80 [3] of 128 µg/mL (≈ 307 µM) and an MIC80 [5] of 4 µg/mL (≈ 9.58 µM). For the same compound, the MIC80 [7] was 4 µg/mL (≈ 9.58 µM), the MIC80 [8] was 64 µg/mL (≈ 153 µM) and the MIC80 [9] was 0.25 µg/mL (≈ 0.599 µM). For the same compound, the MIC80 [10] was 64 µg/mL (≈ 153 µM), the MIC80 [11] was 64 µg/mL (≈ 153 µM) and the MIC80 [12] was greater than 128 µg/mL. It also gave an MIC80 [13] of 16 µg/mL (≈ 38.3 µM), an MIC80 [14] of 128 µg/mL (≈ 307 µM) and an MIC80 [16] of 0.125 µg/mL (≈ 0.299 µM).
`C[C@@H](N1CCN(Cc2cccs2)CC1)[C@](O)(Cn1cncn1)c1ccc(F)cc1F` [Example 44, (2R,3R)-2-(2,4-difluorophenyl)-3-(4-((thiophen-2-yl)methyl)piperazin-1-yl)-1-(1H-1,2,4-triazol-1-yl)butan-2-ol] was tested, and the MIC80 [2] was 0.125 µg/mL (≈ 0.288 µM), the MIC80 [3] was 32 µg/mL (≈ 73.8 µM) and the MIC80 [5] was 4 µg/mL (≈ 9.23 µM). The MIC80 [7] was 2 µg/mL (≈ 4.61 µM), the MIC80 [8] was 0.5 µg/mL (≈ 1.15 µM) and the MIC80 [9] was 0.125 µg/mL (≈ 0.288 µM). The MIC80 [10] was 64 µg/mL (≈ 148 µM), the MIC80 [11] was 32 µg/mL (≈ 73.8 µM) and the MIC80 [12] was greater than 128 µg/mL. The MIC80 [13] was 4 µg/mL (≈ 9.23 µM), the MIC80 [14] was 32 µg/mL (≈ 73.8 µM) and the MIC80 [16] was 0.125 µg/mL (≈ 0.288 µM).

— patent US20100144712A1 (priority 2007, published 2010)
